Experimental data: PubChem BioAssay (NCI)
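How tested: cells in 96-well plates exposed to compound for 48 hours at five concentrations. TGI denotes the concentration required for complete inhibition of growth.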

Each compound was assayed on SNB-75 CNS (assay: DTP human tumour cell line panel, 48 h).

Structure (SMILES) | TGI
CN(C)C(=S)/N=c1\ssc(=S)n1Cc1ccccc1 | 3.29 µM
Cn1c(O)c(C=Nc2ccccc2[N+](=O)[O-])c(=O)n(C)c1=O | > 100 µM
COc1cc(-c2cc(-c3ccccc3)nc(-c3c(OC)ccc4c(C)cc(=O)oc34)c2)cc(OC)c1OC | > 100 µM
CCOC(=O)c1nc2ccccc2nc1NCc1cc(OC)c(OC)c(OC)c1 | > 100 µM
C[C@H](NC(=O)c1ccc(CNC(=O)/C=C/c2cccc(Oc3ccccc3)c2)cc1)c1ccccc1 | 44.2 µM
CCN(CC)/C(Sc1ccccc1)=C(\C(Cl)=C(Cl)Cl)[N+](=O)[O-] | 57.3 µM
Brc1cc(CCOC2CCCCO2)c(-c2sccc2CCOC2CCCCO2)s1 (stereo unspecified) | > 100 µM
CC(C)=CCC/C(=C/CC/C(=C\CCc1ccoc1)C(=O)O)C(=O)O | > 100 µM
CCCCc1ccc(Nc2nc(SC)c3[nH]cnc3n2)cc1 | > 100 µM
Cc1cccc(CP(Cc2cccc(C)c2)CC2(Cp3c4ccccc4c4ccccc43)COC2)c1 | > 100 µM
COc1cc(OC)nc(-n2c(N)c(C#N)c3ccc([N+](=O)[O-])cc3c2=O)n1 | > 100 µM
COC(=O)c1sc(=S)sc1SCc1ccc(CSc2sc(=S)sc2C(=O)OC)cc1 | > 100 µM
CCOC(=O)c1cn2c(n1)sc1c(Cl)c(Cl)ccc12 | 73.1 µM
CN1CCN(c2ncc3c(n2)sc2c(=O)n(-c4ccccc4)cnc23)CC1 | > 100 µM
COc1ccc(C(=O)c2sc(Nc3ccc(Cl)cc3)nc2N)cc1 | 18.4 µM
Cc1cn(C2CC(O)C(COC(=O)NCCC(F)(F)C(F)(F)C(F)(F)C(F)(F)F)O2)c(=O)[nH]c1=O (stereo unspecified) | > 100 µM
CC(C)(C)OC(=O)N1CCC(C(=O)O)CC1 | > 100 µM
C/C=C\C(CC(=O)NCCC1CN(S(=O)(=O)c2ccc(C)cc2)c2ccccc21)CC(=O)OC (stereo unspecified) | > 100 µM
CN(C)CCN(C)c1ccc2c(=O)n(CCN(C)C)c(=O)n3c4ccccc4c(=O)c1c23 | 3.5 µM
O=C(CCc1ccc(O)c(O)c1)NCCc1cc(O)cc(O)c1 | > 100 µM
Cc1nn(C(=O)c2ccc(Cl)cc2)c2c1C(c1ccccc1[N+](=O)[O-])SC(N)=N2 (stereo unspecified) | > 10 µM
C=CCc1cccc2cc(C(=O)Nc3ccccc3)c(=N)oc12 | > 100 µM

The compounds below were run on MOLT-4 leukemia (assay: DTP human tumour cell line panel, 48 h).

Structure (SMILES) | TGI
CN(C)C(=S)/N=c1\ssc(=S)n1Cc1ccccc1 | 29 µM
Cn1c(O)c(C=Nc2ccccc2[N+](=O)[O-])c(=O)n(C)c1=O | > 100 µM
COc1cc(-c2cc(-c3ccccc3)nc(-c3c(OC)ccc4c(C)cc(=O)oc34)c2)cc(OC)c1OC | > 100 µM
CCOC(=O)c1nc2ccccc2nc1NCc1cc(OC)c(OC)c(OC)c1 | > 100 µM
C[C@H](NC(=O)c1ccc(CNC(=O)/C=C/c2cccc(Oc3ccccc3)c2)cc1)c1ccccc1 | > 100 µM
CCN(CC)/C(Sc1ccccc1)=C(\C(Cl)=C(Cl)Cl)[N+](=O)[O-] | 31.3 µM
Brc1cc(CCOC2CCCCO2)c(-c2sccc2CCOC2CCCCO2)s1 (stereo unspecified) | > 61.3 µM
CC(C)=CCC/C(=C/CC/C(=C\CCc1ccoc1)C(=O)O)C(=O)O | > 100 µM
CCCCc1ccc(Nc2nc(SC)c3[nH]cnc3n2)cc1 | > 100 µM
Cc1cccc(CP(Cc2cccc(C)c2)CC2(Cp3c4ccccc4c4ccccc43)COC2)c1 | 37.8 µM
COc1cc(OC)nc(-n2c(N)c(C#N)c3ccc([N+](=O)[O-])cc3c2=O)n1 | > 100 µM
COC(=O)c1sc(=S)sc1SCc1ccc(CSc2sc(=S)sc2C(=O)OC)cc1 | > 100 µM
CCOC(=O)c1cn2c(n1)sc1c(Cl)c(Cl)ccc12 | > 40 µM
CN1CCN(c2ncc3c(n2)sc2c(=O)n(-c4ccccc4)cnc23)CC1 | > 100 µM
COc1ccc(C(=O)c2sc(Nc3ccc(Cl)cc3)nc2N)cc1 | > 71.4 µM
Cc1cn(C2CC(O)C(COC(=O)NCCC(F)(F)C(F)(F)C(F)(F)C(F)(F)F)O2)c(=O)[nH]c1=O (stereo unspecified) | > 100 µM
CC(C)(C)OC(=O)N1CCC(C(=O)O)CC1 | > 100 µM
C/C=C\C(CC(=O)NCCC1CN(S(=O)(=O)c2ccc(C)cc2)c2ccccc21)CC(=O)OC (stereo unspecified) | > 100 µM
CN(C)CCN(C)c1ccc2c(=O)n(CCN(C)C)c(=O)n3c4ccccc4c(=O)c1c23 | 0.135 µM
O=C(CCc1ccc(O)c(O)c1)NCCc1cc(O)cc(O)c1 | > 100 µM
Cc1nn(C(=O)c2ccc(Cl)cc2)c2c1C(c1ccccc1[N+](=O)[O-])SC(N)=N2 (stereo unspecified) | > 10 µM
C=CCc1cccc2cc(C(=O)Nc3ccccc3)c(=N)oc12 | > 100 µM

The compounds below were run on BT-549 breast (assay: DTP human tumour cell line panel, 48 h).

Structure (SMILES) | TGI
CN(C)C(=S)/N=c1\ssc(=S)n1Cc1ccccc1 | > 100 µM
Cn1c(O)c(C=Nc2ccccc2[N+](=O)[O-])c(=O)n(C)c1=O | > 100 µM
COc1cc(-c2cc(-c3ccccc3)nc(-c3c(OC)ccc4c(C)cc(=O)oc34)c2)cc(OC)c1OC | > 100 µM
CCOC(=O)c1nc2ccccc2nc1NCc1cc(OC)c(OC)c(OC)c1 | > 100 µM
C[C@H](NC(=O)c1ccc(CNC(=O)/C=C/c2cccc(Oc3ccccc3)c2)cc1)c1ccccc1 | > 100 µM
CCN(CC)/C(Sc1ccccc1)=C(\C(Cl)=C(Cl)Cl)[N+](=O)[O-] | 38.1 µM
Brc1cc(CCOC2CCCCO2)c(-c2sccc2CCOC2CCCCO2)s1 (stereo unspecified) | > 100 µM
CC(C)=CCC/C(=C/CC/C(=C\CCc1ccoc1)C(=O)O)C(=O)O | > 100 µM
CCCCc1ccc(Nc2nc(SC)c3[nH]cnc3n2)cc1 | > 100 µM
Cc1cccc(CP(Cc2cccc(C)c2)CC2(Cp3c4ccccc4c4ccccc43)COC2)c1 | > 100 µM
COc1cc(OC)nc(-n2c(N)c(C#N)c3ccc([N+](=O)[O-])cc3c2=O)n1 | > 100 µM
COC(=O)c1sc(=S)sc1SCc1ccc(CSc2sc(=S)sc2C(=O)OC)cc1 | > 100 µM
CCOC(=O)c1cn2c(n1)sc1c(Cl)c(Cl)ccc12 | > 100 µM
CN1CCN(c2ncc3c(n2)sc2c(=O)n(-c4ccccc4)cnc23)CC1 | > 100 µM
COc1ccc(C(=O)c2sc(Nc3ccc(Cl)cc3)nc2N)cc1 | > 100 µM
Cc1cn(C2CC(O)C(COC(=O)NCCC(F)(F)C(F)(F)C(F)(F)C(F)(F)F)O2)c(=O)[nH]c1=O (stereo unspecified) | > 100 µM
CC(C)(C)OC(=O)N1CCC(C(=O)O)CC1 | > 100 µM
C/C=C\C(CC(=O)NCCC1CN(S(=O)(=O)c2ccc(C)cc2)c2ccccc21)CC(=O)OC (stereo unspecified) | > 100 µM
CN(C)CCN(C)c1ccc2c(=O)n(CCN(C)C)c(=O)n3c4ccccc4c(=O)c1c23 | 15 µM
O=C(CCc1ccc(O)c(O)c1)NCCc1cc(O)cc(O)c1 | > 100 µM
Cc1nn(C(=O)c2ccc(Cl)cc2)c2c1C(c1ccccc1[N+](=O)[O-])SC(N)=N2 (stereo unspecified) | > 10 µM
C=CCc1cccc2cc(C(=O)Nc3ccccc3)c(=N)oc12 | > 100 µM

Each compound was assayed on HOP-62 NSCLC (assay: DTP human tumour cell line panel, 48 h).

Structure (SMILES) | TGI
CN(C)C(=S)/N=c1\ssc(=S)n1Cc1ccccc1 | 20.7 µM
Cn1c(O)c(C=Nc2ccccc2[N+](=O)[O-])c(=O)n(C)c1=O | > 100 µM
COc1cc(-c2cc(-c3ccccc3)nc(-c3c(OC)ccc4c(C)cc(=O)oc34)c2)cc(OC)c1OC | > 100 µM
CCOC(=O)c1nc2ccccc2nc1NCc1cc(OC)c(OC)c(OC)c1 | > 100 µM
C[C@H](NC(=O)c1ccc(CNC(=O)/C=C/c2cccc(Oc3ccccc3)c2)cc1)c1ccccc1 | > 100 µM
CCN(CC)/C(Sc1ccccc1)=C(\C(Cl)=C(Cl)Cl)[N+](=O)[O-] | 42.4 µM
Brc1cc(CCOC2CCCCO2)c(-c2sccc2CCOC2CCCCO2)s1 (stereo unspecified) | > 100 µM
CC(C)=CCC/C(=C/CC/C(=C\CCc1ccoc1)C(=O)O)C(=O)O | > 100 µM
CCCCc1ccc(Nc2nc(SC)c3[nH]cnc3n2)cc1 | 57.7 µM
Cc1cccc(CP(Cc2cccc(C)c2)CC2(Cp3c4ccccc4c4ccccc43)COC2)c1 | > 100 µM
COc1cc(OC)nc(-n2c(N)c(C#N)c3ccc([N+](=O)[O-])cc3c2=O)n1 | > 100 µM
COC(=O)c1sc(=S)sc1SCc1ccc(CSc2sc(=S)sc2C(=O)OC)cc1 | > 100 µM
CCOC(=O)c1cn2c(n1)sc1c(Cl)c(Cl)ccc12 | > 51.3 µM
CN1CCN(c2ncc3c(n2)sc2c(=O)n(-c4ccccc4)cnc23)CC1 | > 100 µM
COc1ccc(C(=O)c2sc(Nc3ccc(Cl)cc3)nc2N)cc1 | 38.6 µM
Cc1cn(C2CC(O)C(COC(=O)NCCC(F)(F)C(F)(F)C(F)(F)C(F)(F)F)O2)c(=O)[nH]c1=O (stereo unspecified) | > 100 µM
CC(C)(C)OC(=O)N1CCC(C(=O)O)CC1 | > 100 µM
C/C=C\C(CC(=O)NCCC1CN(S(=O)(=O)c2ccc(C)cc2)c2ccccc21)CC(=O)OC (stereo unspecified) | > 100 µM
CN(C)CCN(C)c1ccc2c(=O)n(CCN(C)C)c(=O)n3c4ccccc4c(=O)c1c23 | 1.47 µM
O=C(CCc1ccc(O)c(O)c1)NCCc1cc(O)cc(O)c1 | > 100 µM
